Test results as given in ChEMBL document CHEMBL4808194, “Design, synthesis and biological evaluation of novel 2,4-disubstituted quinazoline derivatives targeting H1975 cells via EGFR-PI3K signaling pathway” (Bioorg Med Chem, 2021).
pIC50: −log10 of the molar value.

How the values were obtained:
Experiment in all cases: cells
Assay type in all cases: functional, cell-based
[1] = test system: PC-3; settings: Homo sapiens, PC-3, 72 h
Description: Antiproliferative activity against human PC-3 cells assessed as inhibition of cell growth incubated for 72 hrs by MTT assay

[2] = test system: MDA-MB-231; settings: Homo sapiens, MDA-MB-231, 72 h
[3] = test system: NCI-H1975; settings: Homo sapiens, NCI-H1975, 72 h
Description: Antiproliferative activity against human NCI-H1975 cells assessed as inhibition of cell growth incubated for 72 hrs by MTT assay

[4] = test system: MGC-803; settings: Homo sapiens, MGC-803, 72 h
Description: Antiproliferative activity against human MGC-803 cells assessed as inhibition of cell growth incubated for 72 hrs by MTT assay

Row | pIC50 [1] | pIC50 [2] | pIC50 [3] | pIC50 [4] | Compound
1 | 4.64 | 4.69 | 5.00 | 4.52 | C=CC(=O)Nc1cccc(NC(=O)CSc2nc(Nc3ccccc3C)c3ccccc3n2)c1
2 | 4.91 | 4.76 | 5.20 | 4.94 | C=CC(=O)Nc1cccc(NC(=O)CSc2nc(Nc3ccc(Br)cc3)c3ccccc3n2)c1
3 | 4.91 | < 4.30 | 5.03 | 4.97 | O=C(CSc1nc(Nc2ccccc2)c2ccccc2n1)Nc1ccccc1F
4 | 4.70 | 4.85 | 4.99 | 4.73 | O=C(CSc1nc(Nc2ccccc2)c2ccccc2n1)Nc1ccccc1Br
5 | 4.91 | 4.79 | 5.02 | 5.11 | C=CC(=O)Nc1cccc(NC(=O)CSc2nc(Nc3cccc(Cl)c3)c3ccccc3n2)c1
6 | 5.08 | 5.02 | 5.35 | 5.08 | C=CC(=O)Nc1cccc(NC(=O)CSc2nc(Nc3ccc(F)cc3)c3ccccc3n2)c1
7 | 4.46 | 4.89 | 5.10 | 4.62 | C=CC(=O)Nc1cccc(NC(=O)CSc2nc(Nc3cccc(OC)c3)c3ccccc3n2)c1
8 | 4.81 | 4.67 | 5.03 | 4.68 | O=C(CSc1nc(Nc2ccccc2)c2ccccc2n1)Nc1ccc(F)c(Cl)c1
9 | 4.33 | < 4.30 | 4.65 | < 4.30 | C=CC(=O)Nc1cccc(NC(=O)CSc2nc(Nc3cccc([N+](=O)[O-])c3)c3ccccc3n2)c1
10 | 4.60 | 4.78 | 4.89 | < 4.30 | O=C(CSc1nc(Nc2ccccc2)c2ccccc2n1)Nc1ccc([N+](=O)[O-])cc1
11 | 4.90 | 4.78 | 5.07 | 4.84 | O=C(CSc1nc(Nc2ccccc2)c2ccccc2n1)Nc1cccc(Cl)c1
12 | 4.90 | 4.94 | 4.89 | 4.92 | C=CC(=O)Nc1cccc(NC(=O)CSc2nc(Nc3ccc(C(F)(F)F)cc3)c3ccccc3n2)c1
13 | 5.07 | 4.94 | 4.97 | 4.71 | O=C(CSc1nc(Nc2ccccc2)c2ccccc2n1)Nc1ccc(Br)cc1
14 | 4.93 | 4.48 | 4.75 | 4.55 | O=C(CSc1nc(Nc2ccccc2)c2ccccc2n1)Nc1cccc([N+](=O)[O-])c1
15 | < 4.30 | < 4.30 | < 4.30 | < 4.30 | C=CC(=O)Nc1cccc(NC(=O)CSc2nc(Nc3cc(OC)c(OC)c(OC)c3)c3ccccc3n2)c1
16 | 4.82 | 4.71 | 4.92 | 4.92 | C=CC(=O)Nc1cccc(NC(=O)CSc2nc(Nc3cccc(Br)c3)c3ccccc3n2)c1
17 | 4.97 | 4.99 | 5.12 | 4.85 | C=CC(=O)Nc1cccc(NC(=O)CSc2nc(Nc3ccc(Cl)cc3)c3ccccc3n2)c1
18 | 4.59 | 4.64 | 5.22 | 4.92 | C=CC(=O)Nc1cccc(NC(=O)CSc2nc(Nc3ccc(Cl)cc3Cl)c3ccccc3n2)c1
19 | 4.61 | 4.84 | 5.08 | 5.10 | C=CC(=O)Nc1cccc(NC(=O)CSc2nc(Nc3ccc(CC)cc3)c3ccccc3n2)c1

Row | pIC50 [1] | pIC50 [2] | pIC50 [3] | pIC50 [4] | Compound
20 | 4.98 | 4.96 | 4.93 | 5.06 | O=C(CSc1nc(Nc2ccccc2)c2ccccc2n1)Nc1ccc(C(F)(F)F)cc1
21 | 4.84 | 4.61 | 5.02 | 4.61 | O=C(CSc1nc(Nc2ccccc2)c2ccccc2n1)Nc1ccccc1Cl
22 | 4.89 | 4.76 | 5.09 | 4.39 | O=C(CSc1nc(Nc2ccccc2)c2ccccc2n1)Nc1ccc(Cl)cc1
23 | 5.03 | 4.73 | 5.18 | 4.58 | C=CC(=O)Nc1cccc(NC(=O)CSc2nc(Nc3ccccc3F)c3ccccc3n2)c1
24 | < 4.30 | 4.98 | < 4.30 | 5.11 | C=CC(=O)Nc1cccc(NC(=O)CSc2nc(Nc3ccc(F)c(Cl)c3)c3ccccc3n2)c1
25 | 5.06 | 4.99 | 5.09 | 5.14 | C=CC(=O)Nc1cccc(NC(=O)CSc2nc(Nc3ccccc3)c3ccccc3n2)c1
26 | 4.81 | < 4.30 | 5.17 | 4.90 | O=C(CSc1nc(Nc2ccccc2)c2ccccc2n1)Nc1cccc(F)c1
27 | 5.04 | 4.71 | 5.08 | 4.91 | O=C(CSc1nc(Nc2ccccc2)c2ccccc2n1)Nc1ccc(Cl)cc1Cl
28 | 5.02 | 4.47 | 4.78 | < 4.30 | O=C(CSc1nc(Nc2ccccc2)c2ccccc2n1)Nc1ccc(F)cc1
29 | 4.94 | 4.76 | 4.99 | 5.02 | O=C(CSc1nc(Nc2ccccc2)c2ccccc2n1)Nc1cccc(Br)c1
30 | 4.94 | 4.66 | 4.71 | 5.00 | COc1cccc(NC(=O)CSc2nc(Nc3ccccc3)c3ccccc3n2)c1
31 | 4.77 | 4.82 | 4.71 | 4.89 | C=CC(=O)Nc1cccc(NC(=O)CSc2nc(Nc3ccccc3Br)c3ccccc3n2)c1
32 | 4.92 | 4.84 | 4.98 | 4.42 | O=C(CSc1nc(Nc2ccccc2)c2ccccc2n1)Nc1ccc(Cl)c(Cl)c1
33 | 4.56 | 4.75 | 4.72 | < 4.30 | C=CC(=O)Nc1cccc(NC(=O)CSc2nc(Nc3ccc(Cl)c(Cl)c3)c3ccccc3n2)c1
34 | 4.75 | 4.47 | 5.00 | < 4.30 | CCc1ccc(NC(=O)CSc2nc(Nc3ccccc3)c3ccccc3n2)cc1
35 | 4.96 | 4.91 | 4.92 | 4.80 | CCc1cccc(NC(=O)CSc2nc(Nc3ccccc3)c3ccccc3n2)c1
36 | 4.53 | 4.78 | 4.92 | 4.68 | C=CC(=O)Nc1cccc(NC(=O)CSc2nc(Nc3cccc(C)c3)c3ccccc3n2)c1
37 | 4.84 | 4.90 | 5.00 | 4.68 | C=CC(=O)Nc1cccc(NC(=O)CSc2nc(Nc3ccccc3Cl)c3ccccc3n2)c1
